Test system: T1, FhTPS7
T1 construct: gene TPS7; full-length ORF (570 residues, no transit peptide, TPS-a clade) in pET-32a, E. coli BL21 (DE3), Ni-purified
Test: GC-MS of hexane-extracted products, Michaelis-Menten non-linear fit
Type: biochemical, Freesia x hybrida
Details: 25 mM HEPES pH 7.4, 15 mM MgCl2, 5 mM DTT, 30 °C, 20 min
Description: GC-MS of hexane-extracted products, Michaelis-Menten non-linear fit on FhTPS7

| Km (FPP 1–135 μM) [µM] | Km (GPP 3–270 μM) [µM] | SMILES |
| --- | --- | --- |
| 5.01 ± 0.21 |  | CC(C)=CCC/C(C)=C/CC/C(C)=C/COP(=O)(O)OP(=O)(O)O [FPP, farnesyl diphosphate] |
|  | 3.71 ± 0.19 | CC(C)=CCC/C(C)=C/COP(=O)(O)OP(=O)(O)O [GPP, geranyl diphosphate] |
